Reference: patent US20140323543A1, “Treatment of Prostate Cancer with eIF4E Antisense Compounds” (priority 2013, published 2014)
Marks after values point to notes of the source that are not given here. In the oligonucleotide strings, read from the 5' end, every base follows the letter of its sugar. An asterisk marks phosphorothioate; unmarked linkages are phosphodiester. Other units and linkages are bracketed, terminal groups are in braces. A string of capitals states the bases alone. e = 2'-O-(2-methoxyethyl) (MOE); [5mC] = 5-methylcytosine; d = 2'-deoxy (DNA)

Key:
Assay type in all cases: in vivo
[1] = test system: A549 Non-Small Cell Lung Cancer Xenograft; test: A549 non-small cell lung cancer xenograft tumor volume in mice; design: key to Mean Tumor Volume: tumor volume in mm^3; details: ASO 50 mg/kg iv; for Mean Tumor Volume: in mm³; for Percent Reduction in Mean Tumor Volumes (observed): NSCLC A 549 Day 50, vs. Vehicle Control, Taxotere 10 mg/kg IP
Description: (§1) Xenograft studies are carried out as described in Graff et al. (2005) Cancer Res. 65:7462-7469. Five million human cancer cells representing non-small cell lung cancer (line A549; ATCC, accession no. CCL-185), hormone refractory prostate cancer (line PC-3; ATCC, accession no. CRL-1435), and ER-/PR-HER2-breast cancer (line MDA-231; ATCC, accession no. HTB-26) are injected subcutaneously in the flank of 6-8 week old, athymic nude mice (Harlan, Indianapolis, Ind.) in a 1:1 mixture of serum-free growth medium and matrigel (Becton Dickinson, Bedford, Mass., catalogue #354234). Mice are monitored daily for palpable tumors.
(§2) When tumor volumes reach ˜50-100 mm^3, mice are randomized to treatment groups (Graff et al. (2007) J. Clin. Invest. 117:2638-48). Body weight is monitored each time tumors are measured.
(§3) For treatment, all mice are injected intravenously with the eIF-4E ASO in saline in a total volume of 200 μl. The ASO consists of the nucleotide sequence 5′-[…]-3′ (SEQ ID NO:1), in which every internucleoside linkage is a phosphorothioate linkage, nucleotides 1-5 and 16-20 reading from the 5′ end to the 3′ end each comprise a 2′-O-(2-methoxyethyl) sugar, nucleotides 6-15 are 2′-deoxynucleotides, every cytosine residue is a 5-methylcytosine, and which is in the form of a sodium salt. The mice are first injected with an initial loading dose of 50 mg/kg ASO for 3 consecutive days, followed by 50 mg/kg thrice weekly thereafter.
(§4) Taxotere® (docetaxel) dosing begins 8 days after the first ASO dose to allow time for reduction of eIF-4E protein expression. Mice are dosed with 2.5 or 10 mg/kg Taxotere® (Sanofi-Aventis) intraperitoneally (IP) in 1% ethanol in 5% dextrose water in a volume of 200 μl once weekly for 3 weeks.
(§5) Tumor volumes are calculated measuring the largest (L) and smallest (W) diameters with a caliper. The formula is: Volume=L×W^2×0.534. Tumor volume data are transformed to a log scale to equalize variance across time and treatment groups. The log volume data are analyzed with a two-way repeated measures analysis of variance by time and treatment using SAS PROC MIXED software (SAS Institute Inc, Cary, N.C.) using the spatial power covariance structure. Treatment groups are compared to the control group at each time point and overall. The data may be plotted as means and standard errors for each treatment group versus time. Additivity is assessed in two ways: (1) as an overall interaction effect between the ASO and Taxotere® in the repeated measures analysis, and (2) by using the Bliss Independence method on the final day of the study (C.I. Bliss (1939) Ann. Appl. Biol. 26:585-615). These two methods yield the same results.
(§6) The observed percent reductions in mean tumor volume at the conclusion of each study resulting from the various treatments are shown in Table 4. These are calculated as: […]
(§7) The “Expected if Additive” percent reductions in mean tumor volume shown in Table 4 are calculated using the Bliss Independence definition of additivity, as follows: […]

[2] = test system: PC-3 Hormone-Refractory Prostate Cancer Xenograft; test: PC-3 hormone-refractory prostate cancer xenograft tumor volume in mice; details: ASO 50 mg/kg iv; for Mean Tumor Volume: in mm³; for Percent Reduction in Mean Tumor Volumes (observed): Prostate PC3 Day 35, vs. Vehicle Control
Description: as §1, §2, §3, §4, §5, §6, §7

[3] = test system: MDA-231 Breast Cancer Xenograft; test: MDA-231 breast cancer xenograft tumor volume in mice; details: for Percent Reduction in Mean Tumor Volumes (observed): Breast MDA-231 Day 33, vs. Vehicle Control; for Percent Reduction in Mean Tumor Volumes (observed) / Mean Tumor Volume: ASO 50 mg/kg iv; for Mean Tumor Volume: in mm³
Description: as §1, §2, §3, §4, §5, §6, §7

[4] = Day 7, docetaxel 10 mg/kg IP once weekly from 8 days after first ASO dose, tumor volumes in mm^3
[5] = Day 7, Taxotere 10 mg/kg IP once weekly from 8 days after first ASO dose, tumor volumes in mm^3
[6] = Day 5, Taxotere 2.5 mg/kg IP once weekly from 8 days after first ASO dose, tumor volumes in mm^3

CC(=O)O[C@@]12CO[C@@H]1C[C@H](O)[C@@]1(C)C(=O)[C@H](O)C3=C(C)[C@@H](OC(=O)[C@H](O)[C@@H](NC(=O)OC(C)(C)C)c4ccccc4)C[C@@](O)([C@@H](OC(=O)c4ccccc4)[C@H]21)C3(C)C [Docetaxel, (2R,3S)—N-carboxy-3-phenylisoseine,N-tert-butyl ester, 13-ester with 5β-20-epoxy-1,2α,4,7β,10β,13α-hexahydroxytax-11-en-9-one 4-acetate 2-benzoate, trihydrate, reference compound]
Mean Tumor Volume [1, 4]: 49.7
Mean Tumor Volume ([1]; Day 10, docetaxel 10 mg/kg IP): 56.7
Mean Tumor Volume ([1]; Day 15, docetaxel 10 mg/kg IP): 114.8
Mean Tumor Volume ([1]; Day 18, docetaxel 10 mg/kg IP): 70.0
Mean Tumor Volume ([1]; Day 22, docetaxel 10 mg/kg IP): 135.8
Mean Tumor Volume ([1]; Day 25, docetaxel 10 mg/kg IP): 170.1
Mean Tumor Volume ([1]; Day 29, docetaxel 10 mg/kg IP): 257.0
Mean Tumor Volume ([1]; Day 32, docetaxel 10 mg/kg IP): 261.5
Mean Tumor Volume ([1]; Day 36, docetaxel 10 mg/kg IP): 290.0
Mean Tumor Volume ([1]; Day 39, docetaxel 10 mg/kg IP): 282.3
Mean Tumor Volume ([1]; Day 43, docetaxel 10 mg/kg IP): 342.6
Mean Tumor Volume ([1]; Day 46, docetaxel 10 mg/kg IP): 310.2
Mean Tumor Volume ([1]; Day 50, docetaxel 10 mg/kg IP): 343.8
Percent Reduction in Mean Tumor Volumes (observed) [1]: −29.6%
Mean Tumor Volume [2, 5]: 46.3
Mean Tumor Volume ([2]; Day 12, Taxotere 10 mg/kg IP): 106.8
Mean Tumor Volume ([2]; Day 15, Taxotere 10 mg/kg IP): 134.7
Mean Tumor Volume ([2]; Day 19, Taxotere 10 mg/kg IP): 164.8
Mean Tumor Volume ([2]; Day 22, Taxotere 10 mg/kg IP): 171.7
Mean Tumor Volume ([2]; Day 27, Taxotere 10 mg/kg IP): 157.4
Mean Tumor Volume ([2]; Day 29, Taxotere 10 mg/kg IP): 162.7
Mean Tumor Volume ([2]; Day 33, Taxotere 10 mg/kg IP): 161.6
Mean Tumor Volume ([2]; Day 35, Taxotere 10 mg/kg IP): 167.0
Percent Reduction in Mean Tumor Volumes (observed) ([2]; Taxotere 10 mg/kg IP): −69.5%*
Percent Reduction in Mean Tumor Volumes (observed) ([3]; Taxotere 2.5 mg/kg IP): −1.4%
Mean Tumor Volume [3, 6]: 78.7
Mean Tumor Volume ([3]; Day 8, Taxotere 2.5 mg/kg IP): 130.1
Mean Tumor Volume ([3]; Day 12, Taxotere 2.5 mg/kg IP): 180.9
Mean Tumor Volume ([3]; Day 15, Taxotere 2.5 mg/kg IP): 221.0
Mean Tumor Volume ([3]; Day 19, Taxotere 2.5 mg/kg IP): 270.3
Mean Tumor Volume ([3]; Day 22, Taxotere 2.5 mg/kg IP): 333.9
Mean Tumor Volume ([3]; Day 26, Taxotere 2.5 mg/kg IP): 384.9
Mean Tumor Volume ([3]; Day 29, Taxotere 2.5 mg/kg IP): 450.4
Mean Tumor Volume ([3]; Day 33, Taxotere 2.5 mg/kg IP): 529.6

d(P-thio)([2′-O-(2-methoxyethyl)]m5rU-([2′-O-(2-methoxyethyl)]rG-([2′-O-(2-methoxyethyl)]m5rU-([2′-O-(2-methoxyethyl)]m5rC-([2′-O-(2-methoxyethyl)]rA-T-A-T-T-m5C-m5C-T-G-G-A-([2′-O-(2-methoxyethyl)]m5rU-([2′-O-(2-methoxyethyl)]m5rC-([2′-O-(2-methoxyethyl)]m5rC-([2′-O-(2-methoxyethyl)]m5rU-([2′-O-(2-methoxyethyl)]m5rU) (antisense eT*eG*eT*e[5mC]*eA*dT*dA*dT*dT*d[5mC]*d[5mC]*dT*dG*dG*dA*eT*e[5mC]*e[5mC]*eT*eT) [eIF-4E ASO]
Mean Tumor Volume [1, 4]: 52.7
Mean Tumor Volume ([1]; Day 10, docetaxel 10 mg/kg IP): 69.4
Mean Tumor Volume ([1]; Day 15, docetaxel 10 mg/kg IP): 113.7
Mean Tumor Volume ([1]; Day 18, docetaxel 10 mg/kg IP): 79.1
Mean Tumor Volume ([1]; Day 22, docetaxel 10 mg/kg IP): 139.5
Mean Tumor Volume ([1]; Day 25, docetaxel 10 mg/kg IP): 149.0
Mean Tumor Volume ([1]; Day 29, docetaxel 10 mg/kg IP): 220.1
Mean Tumor Volume ([1]; Day 32, docetaxel 10 mg/kg IP): 249.5
Mean Tumor Volume ([1]; Day 36, docetaxel 10 mg/kg IP): 256.6
Mean Tumor Volume ([1]; Day 39, docetaxel 10 mg/kg IP): 239.1
Mean Tumor Volume ([1]; Day 43, docetaxel 10 mg/kg IP): 313.2
Mean Tumor Volume ([1]; Day 46, docetaxel 10 mg/kg IP): 292.3
Mean Tumor Volume ([1]; Day 50, docetaxel 10 mg/kg IP): 404.0
Percent Reduction in Mean Tumor Volumes (observed) [1]: −17.3%
Mean Tumor Volume [2, 5]: 49.8
Mean Tumor Volume ([2]; Day 12, Taxotere 10 mg/kg IP): 88.3
Mean Tumor Volume ([2]; Day 15, Taxotere 10 mg/kg IP): 130.3
Mean Tumor Volume ([2]; Day 19, Taxotere 10 mg/kg IP): 159.0
Mean Tumor Volume ([2]; Day 22, Taxotere 10 mg/kg IP): 218.8
Mean Tumor Volume ([2]; Day 27, Taxotere 10 mg/kg IP): 294.5
Mean Tumor Volume ([2]; Day 29, Taxotere 10 mg/kg IP): 343.9
Mean Tumor Volume ([2]; Day 33, Taxotere 10 mg/kg IP): 424.0
Mean Tumor Volume ([2]; Day 35, Taxotere 10 mg/kg IP): 491.2
Percent Reduction in Mean Tumor Volumes (observed) ([2]; Taxotere 10 mg/kg IP): −10.2%
Percent Reduction in Mean Tumor Volumes (observed) ([3]; Taxotere 2.5 mg/kg IP): +16.6%
Mean Tumor Volume [3, 6]: 78.9
Mean Tumor Volume ([3]; Day 8, Taxotere 2.5 mg/kg IP): 129.4
Mean Tumor Volume ([3]; Day 12, Taxotere 2.5 mg/kg IP): 166.6
Mean Tumor Volume ([3]; Day 15, Taxotere 2.5 mg/kg IP): 221.0
Mean Tumor Volume ([3]; Day 19, Taxotere 2.5 mg/kg IP): 268.2
Mean Tumor Volume ([3]; Day 22, Taxotere 2.5 mg/kg IP): 356.3
Mean Tumor Volume ([3]; Day 26, Taxotere 2.5 mg/kg IP): 435.9
Mean Tumor Volume ([3]; Day 29, Taxotere 2.5 mg/kg IP): 574.1
Mean Tumor Volume ([3]; Day 33, Taxotere 2.5 mg/kg IP): 626.2
Effect on mean tumor volume (in words) ([3]; breast cancer model, ASO alone): non-statistically significant increase
